Assay results: US10166199B2, “Transdermal patch comprising a ropivacaine formulation” (BUZZZ PHARMACEUTICALS LIMITED, priority 2013, dated 2019)
Where two headings read alike, the source gives them in different places.

Key:
[1] = Approximate ropivacaine solubility in excipients, assessed visually; type: physicochemical
Experimental: Approximate solubilities were assessed visually by gradual addition of ropivacaine to a known volume of excipient at room temperature until saturation was observed.
(§1) Further excipients were assessed for ropivacaine solubility and compatibility with Duro-Tak® adhesive 87-900A. Adhesive compatibility was assessed by mixing ropivacaine (4% (w/w)) and excipient (5% (w/w)) with Duro-Tak® 87-900A.

[2] = Excipient compatibility with Duro-Tak 87-900A adhesive; type: physicochemical; settings: ropivacaine 4% (w/w) and excipient 5% (w/w) in Duro-Tak 87-900A; miscible, no precipitate after 72 hours
Experimental: as §1

[3] = local anaesthetic during cataract surgery, cited from earlier work
[4] = solubility of ropivacaine in the named excipient, gradual addition at room temperature, visual

## CO[C@H]1CO[C@H]2[C@@H]1OC[C@H]2OC [DMI, dimethylisosorbide]
[1]; [4]
  % Solubility (ropivacaine in candidate excipient): 2.8-3.6 % w/v

## CCOCCOCCO [Transcutol P, ethoxy diglycol]
[1]; [4]
  % Solubility (ropivacaine in candidate excipient): 4.1-4.6 % w/v
[2]
  900A Compatible: yes

## sorbitan monooleate [Span 80]
[2]
  900A Compatible: no

## CCCN1CCCC[C@H]1C(=O)Nc1c(C)cccc1C [ropivacaine, (2S)—N-(2,6-dimethylphenyl)-1-propyl-2-piperidinecarboxamide]
[3]; dose-for-dose
  potency relative to lidocaine: as much as four times as potent as lidocaine
[3]
  half life relative to lidocaine: longer half life

## apricot kernel oil PEG-6 esters [Labrafil M 1944 CS]
[1]
  % Solubility (ropivacaine in candidate excipient): 1.2-2.1 % w/v

## CCCCCCCC/C=C\CCCCCCCC(=O)OCC(O)CO (stereo not shown) [Capmul-GMO-50, glycerol monooleate]
[2]
  900A Compatible: no

## sorbitan trioleate [Span 85]
[2]
  900A Compatible: yes

## propylene glycol dicaprylate/dicaprate [Labrafac PG]
[1]
  % Solubility (ropivacaine in candidate excipient): 1.3-1.8 % w/v
